Converted amounts (≈) assume the structure as drawn.
How the values were obtained:
[1] = Combined toxicity of chlorpyrifos and butachlor to Japanese medaka larvae; settings: in vivo
Procedure: (§1) F. Combined toxicity test: The toxicity test is performed on zebrafish larvae and Japanese medaka larvae, the test procedure is as follows:
(§2) b. Japanese medaka: A single pesticide is used to measure the LC50 value of Japanese medaka for 96 hours, mixing chlorpyrifos and butachlor to form binary mixed systems with different ratios of 1:4, 2:3, 1:1, 3:2 and 4:1, according to the pre-experiment results, 5-7 different concentrations are set at equal logarithmic intervals to determine the combined toxicity of the mixed system to Japanese medaka, the method is the same as the determination of single toxicity, the total concentration of the binary mixture is the sum of the concentrations of the two components;
as §2, with “different concentrations with a geometrical ratio are set” for “different concentrations are set”, “to Japanese medaka the method” for “to Japanese medaka, the method”, “as the determination, of single” for “as the determination of single”
(§3) H. Data processing: Calculating the LC50 value of pesticides on larvae and their 95% confidence limits by probit analysis based on the number and time of dead fish larvae, and using 95% confidence limit of LC50 as the criterion to determine whether the toxicity difference of different drugs is significant, LC50≤0.1 mg a.i. L^−1, is hypertoxic; 0.1<LC50≤1.0 mg a.i. L^−1, is high toxicity; 1.0<LC50≤10.0 mg a.i. L^−1, is medium toxicity; LC50>10.0 mg a.i. L^−1, is low toxicity, the maximum allowable concentration of MPC employs 100 as the protection factor, the formula is: MPC=96 h-LC50/100, to get the maximum allowable concentration of a poison.

[2] = Single toxicity of chlorpyrifos and butachlor to zebrafish embryos; assay type: in vivo; settings: in vivo, other: immersion in test solution (waterborne exposure), read-out: LC50 (95% CI)
Procedure: (§4) D. Toxicity of pesticides to zebrafish embryos: On the basis of clearing the effective concentration range of pesticides in pre-tests, diluting the pesticide stock solution with standard dilution water to 5-7 concentrations with a geometrical ratio, and using a 24 well cell culture dish for exposure apparatus, the volume of each well is 3 mL, 20 wells are the same experimental concentration, and the remaining 4 wells are blank controls; during the experiment, of test solution and 1 randomly selected 3 hpf (hourpost-fertilization) normal fertilized embryo at the embryo shield stage were put into every well, set up 3 replicates at each concentration, every culture dish as a replicate, and incubating in a multifunctional incubator at 26±1° C. with a photoperiod of 14 h (light): 10 h (dark);
(§5) Preferably, in the step D, the test solution needs to be replaced every 24 h, observing and microscopical observing the CK group and the exposed group every 24 h, recording the number of embryos with normal development and malformations, and calculating the number of embryos hatched and larvae malformations, the experiment lasts 96 hours.
as §4, with “24-well” for “24 well”, “poisoning” for “exposure”, “experiment, 2 mL” for “experiment,”, “C. V:” for “C.”
as §3
as §5, with “Wherein” for “Preferably,”, “hours, for structural analysis.” for “hours.”

zebrafish embryos = experiment: as above; assay type: in vivo
Procedure: as §4, §5
as §4, with “24-well” for “24 well”, “poisoning” for “exposure”, “experiment, 2 mL” for “experiment,”, “C. V:” for “C.”
as §3
as §5, with “Wherein” for “Preferably,”, “hours, for structural analysis.” for “hours.”

[3] = Single toxicity of chlorpyrifos and butachlor to Japanese medaka larvae; settings: in vivo, other: immersion in test solution (waterborne exposure), read-out: LC50 (95% CI)
Procedure: (§6) H. Data processing: Calculating the LC50 value of pesticides on larvae and their 95% confidence limits by probit analysis based on the number and time of dead fish larvae, and using 95% confidence limit of LC50 as the criterion to determine whether the toxicity difference of different pesticides is significant, LC50≤0.1 mg a.i. L^−1, is hypertoxic; 0.1<LC50≤1.0 mg a.i. L^−1, is high toxicity; 1.0<LC50≤[…] a.i. L^−1, is medium toxicity; LC50>10.0 mg a.i. L^−1 is low toxicity. The maximum allowable concentration of MPC employs 100 as the protection factor, the formula is: MPC=96 h-LC50/100, to get the maximum allowable concentration of a poison.
as §3
(§7) Wherein the larvae in the migratory period in step E refer to fish 120 h after fertilization of eggs, for improving the accuracy of the test.

[4] = Combined toxicity of chlorpyrifos and butachlor to zebrafish larvae; settings: in vivo, read-out: LC50 (95% CI) of the component in the mixture
Procedure: as §1
a. Zebrafish larvae: The LC50 value of zebrafish larvae with a single pesticide for 96 h is a toxic unit, and 5-7 different concentrations with a geometrical ratio, test method and calculation of LC50 value of each exposure time are the same as 1.4.2;
as §3

[5] = Single toxicity of chlorpyrifos and butachlor to zebrafish larvae; settings: in vivo, other: immersion in test solution (waterborne exposure), read-out: LC50 (95% CI)
Procedure: as §6, §3, §7

Question: For CCOP(=S)(OCC)Oc1nc(Cl)c(Cl)cc1Cl [Chlorpyrifos, chlorpyrifos], which LC50 at 24 h ([1]; Japanese medaka larvae, chlorpyrifos:butachlor ratio 4:1, 24 h, read-out: LC50 (95% CI) of the component in the mixture) is on record?
Answer: 0.8 µg/mL

Question: What about the LC50 at 96 h ([1]; Japanese medaka larvae, chlorpyrifos:butachlor ratio 4:1, 96 h, read-out: LC50 (95% CI) of the component in the mixture) of the same compound?
Answer: 0.14 µg/mL

Question: What about the LC50 at 24 h ([1]; other: immersion in test solution (waterborne exposure), Japanese medaka larvae, chlorpyrifos:butachlor ratio 1:1, 24 h, read-out: LC50 (95%) CI of the component in the mixture) of the same compound?
Answer: 1.53 µg/mL

Question: And the LC50 at 48 h ([1]; other: immersion in test solution (waterborne exposure), Japanese medaka larvae, chlorpyrifos:butachlor ratio 1:1, 48 h, read-out: LC50 (95%) CI of the component in the mixture)?
Answer: 1.22 µg/mL

Question: And the LC50 at 72 h ([1]; other: immersion in test solution (waterborne exposure), Japanese medaka larvae, chlorpyrifos:butachlor ratio 1:1, 72 h, read-out: LC50 (95%) CI of the component in the mixture)?
Answer: 0.93 µg/mL

Question: What about the LC50 at 96 h ([1]; other: immersion in test solution (waterborne exposure), Japanese medaka larvae, chlorpyrifos:butachlor ratio 1:1, 96 h, read-out: LC50 (95%) CI of the component in the mixture) of the same compound?
Answer: 0.81 µg/mL

Question: What about the LC50 at 48 h ([1]; other: immersion in test solution (waterborne exposure), Japanese medaka larvae, chlorpyrifos:butachlor ratio 4:1, 48 h, read-out: LC50 (95% CI) of the component in the mixture) of the same compound?
Answer: 0.61 µg/mL

Question: What about the LC50 at 72 h ([1]; other: immersion in test solution (waterborne exposure), Japanese medaka larvae, chlorpyrifos:butachlor ratio 4:1, 72 h, read-out: LC50 (95% CI) of the component in the mixture) of the same compound?
Answer: 0.43 µg/mL

Question: What about the LC50 at 24 h ([1]; other: immersion in test solution (waterborne exposure), chlorpyrifos:butachlor ratio 1:4, 24 h, read-out: LC50 (95% CI) of the component in the mixture) of the same compound?
Answer: 0.57 µg/mL

Question: And the LC50 at 48 h ([1]; other: immersion in test solution (waterborne exposure), chlorpyrifos:butachlor ratio 1:4, 48 h, read-out: LC50 (95% CI) of the component in the mixture)?
Answer: 0.33 µg/mL

Question: And the LC50 at 72 h ([1]; other: immersion in test solution (waterborne exposure), chlorpyrifos:butachlor ratio 1:4, 72 h, read-out: LC50 (95% CI) of the component in the mixture)?
Answer: 0.28 µg/mL

Question: And the LC50 at 96 h ([1]; other: immersion in test solution (waterborne exposure), chlorpyrifos:butachlor ratio 1:4, 96 h, read-out: LC50 (95% CI) of the component in the mixture)?
Answer: 0.22 µg/mL

Question: And the LC50 at 24 h ([1]; other: immersion in test solution (waterborne exposure), chlorpyrifos:butachlor ratio 2:3, 24 h, read-out: LC50 (95% CI) of the component in the mixture)?
Answer: 1.52 µg/mL

Question: What about the LC50 at 48 h ([1]; other: immersion in test solution (waterborne exposure), chlorpyrifos:butachlor ratio 2:3, 48 h, read-out: LC50 (95% CI) of the component in the mixture) of the same compound?
Answer: 0.44 µg/mL

Question: And the LC50 at 72 h ([1]; other: immersion in test solution (waterborne exposure), chlorpyrifos:butachlor ratio 2:3, 72 h, read-out: LC50 (95% CI) of the component in the mixture)?
Answer: 0.28 µg/mL

Question: And the LC50 at 96 h ([1]; other: immersion in test solution (waterborne exposure), chlorpyrifos:butachlor ratio 2:3, 96 h, read-out: LC50 (95% CI) of the component in the mixture)?
Answer: 0.23 µg/mL

Question: What about the LC50 at 24 h ([1]; other: immersion in test solution (waterborne exposure), chlorpyrifos:butachlor ratio 3:2, 24 h, read-out: LC50 (95% CI) of the component in the mixture) of the same compound?
Answer: 2.23 µg/mL

Question: What about the LC50 at 48 h ([1]; other: immersion in test solution (waterborne exposure), chlorpyrifos:butachlor ratio 3:2, 48 h, read-out: LC50 (95% CI) of the component in the mixture) of the same compound?
Answer: 1.94 µg/mL

Question: What about the LC50 at 72 h ([1]; other: immersion in test solution (waterborne exposure), chlorpyrifos:butachlor ratio 3:2, 72 h, read-out: LC50 (95% CI) of the component in the mixture) of the same compound?
Answer: 1.31 µg/mL

Question: And the LC50 at 96 h ([1]; other: immersion in test solution (waterborne exposure), chlorpyrifos:butachlor ratio 3:2, 96 h, read-out: LC50 (95% CI) of the component in the mixture)?
Answer: 0.99 µg/mL

Question: And the LC50 at 24 h ([2]; exposure time 24 h)?
Answer: 170 µg/mL (≈ 485 µM)

Question: And the LC50 at 48 h ([2]; exposure time 48 h)?
Answer: 120 µg/mL (≈ 341 µM)

Question: What about the LC50 at 72 h ([2]; exposure time 72 h) of the same compound?
Answer: 63.4 µg/mL (≈ 181 µM)

Question: What about the LC50 at 96 h ([2]; exposure time 96 h) of the same compound?
Answer: 13 µg/mL (≈ 37.2 µM)

Question: And the “effects of exposure on zebrafish embryo development” value (zebrafish embryos)?
Answer: egg coagulation, pericardial edema, yolk sac edema, and spinal curvature

Question: And the LC50 at 24 h ([3]; exposure time 24 h)?
Answer: 0.75 µg/mL (≈ 2.14 µM)

Question: What about the LC50 at 48 h ([3]; exposure time 48 h) of the same compound?
Answer: 0.4 µg/mL (≈ 1.14 µM)

Question: And the LC50 at 72 h ([3]; exposure time 72 h)?
Answer: 0.35 µg/mL (≈ 0.998 µM)

Question: And the LC50 at 96 h ([3]; exposure time 96 h)?
Answer: 0.24 µg/mL (≈ 0.685 µM)

Question: What about the LC50 at 24 h ([4]; equitoxic ratio) of the same compound?
Answer: 0.55 µg/mL

Question: What about the LC50 at 48 h ([4]; equitoxic ratio) of the same compound?
Answer: 0.43 µg/mL

Question: What about the LC50 at 72 h ([4]; equitoxic ratio) of the same compound?
Answer: 0.27 µg/mL

Question: And the LC50 at 96 h ([4]; equitoxic ratio)?
Answer: 0.16 µg/mL

Question: And the LC50 at 24 h ([4]; equivalent concentration (1:1))?
Answer: 0.18 µg/mL

Question: What about the LC50 at 48 h ([4]; equivalent concentration (1:1)) of the same compound?
Answer: 0.16 µg/mL

Question: What about the LC50 at 72 h ([4]; equivalent concentration (1:1)) of the same compound?
Answer: 0.14 µg/mL

Question: What about the LC50 at 96 h ([4]; equivalent concentration (1:1)) of the same compound?
Answer: 0.11 µg/mL

Question: And the LC50 at 24 h ([5]; exposure time 24 h)?
Answer: 0.67 µg/mL (≈ 1.91 µM)

Question: What about the LC50 at 48 h ([5]; exposure time 48 h) of the same compound?
Answer: 0.39 µg/mL (≈ 1.11 µM)

Question: What about the LC50 at 72 h ([5]; exposure time 72 h) of the same compound?
Answer: 0.34 µg/mL (≈ 0.97 µM)

Question: What about the LC50 at 96 h ([5]; exposure time 96 h) of the same compound?
Answer: 0.27 µg/mL (≈ 0.77 µM)

Reference: US20200284781A1, “TEST METHOD OF COMBINED TOXICITY FOR CH[…] BUTACHLOR” (priority 2019, published 2020)
